# Measurements: patent US20230143612A1 (Arbutus Biopharma Corporation, priority 2020, published 2023)
# Target: PD-L1 His protein / PD-1 Fc protein (Homo sapiens, UniProt Q9NZQ7)
# Assay: HTRF Assay (PD-1/PD-L1 interaction)
# Type: binding
# Settings: PD-L1 His 6 nM, PD-1 Fc 6 nM
# Summary of the method: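 Compounds tested from 20 μM down to 0.001 μM (3-fold) against 6 nM PD-L1 His and 6 nM PD-1 Fc, 15 min room temperature incubation. Detection after 1 h at room temperature with Tb cryptate anti-6HIS and XL665 anti-human IgG reagents (mixture at 0.35 nM and 6.7 nM), HTRF signal.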
# PD-L1 His protein / PD-1 Fc protein, sequence (Q9NZQ7 19-238 limits assumed): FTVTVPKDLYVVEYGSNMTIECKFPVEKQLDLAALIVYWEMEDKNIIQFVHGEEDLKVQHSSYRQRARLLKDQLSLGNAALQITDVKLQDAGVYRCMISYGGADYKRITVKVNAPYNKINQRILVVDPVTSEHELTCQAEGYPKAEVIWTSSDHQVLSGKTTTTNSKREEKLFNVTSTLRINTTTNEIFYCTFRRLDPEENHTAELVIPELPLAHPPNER
row,SMILES,IC50 [nM]
1,"COC(=O)[C@H]1CCN(Cc2cnc3cc(-c4cccc(-c5cccc(-c6ccc(CNC[C@@H]7CCC(=O)N7)c(OC)n6)c5Cl)c4Cl)cc(C)n3c2=O)C1 [Example 295, (S)-Methyl 1-((8-(2,2′-dichloro-3′-(6-methoxy-5-(((((S)-5-oxopyrrolidin-2-yl)methyl)amino)methyl)pyridin-2-yl)-[1,1′-biphenyl]-3-yl)-6-methyl-4-oxo-4H-pyrido[1,2-a]pyrimidin-3-yl)methyl)pyrrolidine-3-carboxylate]",0.1
2,"COC(=O)C1CN(Cc2c(C)nc3cc(-c4cccc(-c5cccc(-c6ccc(CNC[C@@H]7CCC(=O)N7)c(OC)n6)c5Cl)c4Cl)ccn3c2=O)C1 [Example 296, (S)-Methyl 1-((8-(2,2′-dichloro-3′-(6-methoxy-5-((((5-oxopyrrolidin-2-yl)methyl)amino)methyl)pyridin-2-yl)-[1,1′-biphenyl]-3-yl)-2-methyl-4-oxo-4H-pyrido[1,2-a]pyrimidin-3-yl)methyl)azetidine-3-carboxylate]",0.5
3,"COc1nc(-c2cccc(-c3cccc(-c4ccn5c(=O)c(CNCC(F)F)cnc5c4)c3Cl)c2Cl)ccc1CNC[C@@H]1CCC(=O)N1 [Example 297, 8-[2-Chloro-3-[2-chloro-3-[6-methoxy-5-[[[(2S)-5-oxopyrrolidin-2-yl]methylamino]methyl]-2-pyridyl]phenyl]phenyl]-3-[(2,2-difluoroethylamino)methyl]pyrido[1,2-a]pyrimidin-4-one]",320
4,"COc1nc(-c2cccc(-c3cccc(-c4ccn5c(=O)c(CNC[C@H](C)N)cnc5c4)c3Cl)c2Cl)ccc1CNC[C@@H]1CCC(=O)N1 [Example 298, 3-[[[(2S)-2-Aminopropyl]amino]methyl]-8-[2-chloro-3-[2-chloro-3-[6-methoxy-5-[[[(2S)-5-oxopyrrolidin-2-yl]methylamino]methyl]-2-pyridyl]phenyl]phenyl]pyrido[1,2-a]pyrimidin-4-one]",25
5,"COC(=O)N(C)CCN(C)Cc1ccc(-c2cccc(-c3cccc(-c4ccn5c(=O)c(CN(C)CCN(C)C(=O)OC)cnc5c4)c3Cl)c2Cl)nc1OC [Example 299, methyl (2-(((8-(2,2′-dichloro-3′-(6-methoxy-5-(((2-((methoxycarbonyl)(methyl)amino)ethyl)(methyl)amino)methyl)pyridin-2-yl)-[1,1′-biphenyl]-3-yl)-4-oxo-4H-pyrido[1,2-a]pyrimidin-3-yl)methyl)(methyl)amino)ethyl)(methyl)carbamate]",3000
6,"COc1nc(-c2cccc(-c3cccc(-c4ccn5c(=O)c(CNCC(F)(F)CO)cnc5c4)c3Cl)c2Cl)ccc1CNC[C@@H]1CCC(=O)N1 [Example 300, (S)-8-(2,2′-Dichloro-3′-(6-methoxy-5-((((5-oxopyrrolidin-2-yl)methyl)amino)methyl)pyridin-2-yl)-[1,1′-biphenyl]-3-yl)-3-(((2,2-difluoro-3-hydroxypropyl)amino)methyl)-4H-pyrido[1,2-a]pyrimidin-4-one]",130
7,"COc1nc(-c2cccc(-c3cccc(-c4ccn5c(=O)c(CNCC6(CO)CC6)cnc5c4)c3Cl)c2Cl)ccc1CNC[C@@H]1CCC(=O)N1 [Example 301, (S)-8-(2,2′-Dichloro-3′-(6-methoxy-5-((((5-oxopyrrolidin-2-yl)methyl)amino)methyl)pyridin-2-yl)-[1,1′-biphenyl]-3-yl)-3-((((1-(hydroxymethyl)cyclopropyl)methyl)amino)methyl)-4H-pyrido[1,2-a]pyrimidin-4-one]",40
8,"COc1nc(-c2cccc(-c3cccc(-c4ccn5c(=O)c(CNC[C@H](C)OC)cnc5c4)c3Cl)c2Cl)ccc1CNC[C@@H]1CCC(=O)N1 [Example 302, 8-[2-Chloro-3-[2-chloro-3-[6-methoxy-5-[[[(2S)-5-oxopyrrolidin-2-yl]methylamino]methyl]-2-pyridyl]phenyl]phenyl]-3-[[[(2S)-2-methoxypropyl]amino]methyl]pyrido[1,2-a]pyrimidin-4-one]",35
9,"COc1nc(-c2cccc(-c3cccc(-c4ccn5c(=O)c(CNCC(F)(F)F)cnc5c4)c3Cl)c2Cl)ccc1CNC[C@@H]1CCC(=O)N1 [Example 303, 8-[2-Chloro-3-[2-chloro-3-[6-methoxy-5-[[[(2S)-5-oxopyrrolidin-2-yl]methylamino]methyl]-2-pyridyl]phenyl]phenyl]-3-[(2,2,2-trifluoroethylamino)methyl]pyrido[1,2-a]pyrimidin-4-one]",0.4
10,"COC(=O)C1CN(Cc2cnc3cc(-c4cccc(-c5cccc(-c6ccc(CNC[C@@H]7CCC(=O)N7)c(OC)n6)c5Cl)c4Cl)ncc3c2)C1 [Example 304, (S)-Methyl 1-((7-(2,2′-dichloro-3′-(6-methoxy-5-((((5-oxopyrrolidin-2-yl)methyl)amino)methyl)pyridin-2-yl)-[1,1′-biphenyl]-3-yl)-1,6-naphthyridin-3-yl)methyl)azetidine-3-carboxylate]",0.2
11,"COC(=O)CNCc1cnc2cc(-c3cccc(-c4cccc(-c5ccc(CNC[C@@H]6CCC(=O)N6)c(OC)n5)c4Cl)c3Cl)ncc2c1 [Example 305, (S)-Methyl 2-(((7-(2,2′-dichloro-3′-(6-methoxy-5-((((5-oxopyrrolidin-2-yl)methyl)amino)methyl)pyridin-2-yl)-[1,1′-biphenyl]-3-yl)-1,6-naphthyridin-3-yl)methyl)amino)acetate]",0.4
12,"COc1nc(-c2cccc(-c3cccc(-c4ccn5c(=O)c(CNC[C@@H]6CCO6)cnc5c4)c3Cl)c2Cl)ccc1CNC[C@@H]1CCC(=O)N1 [Example 306, 8-[2-Chloro-3-[2-chloro-3-[6-methoxy-5-[[[(2S)-5-oxopyrrolidin-2-yl]methylamino]methyl]-2-pyridyl]phenyl]phenyl]-3-[[[(2S)-oxetan-2-yl]methylamino]methyl]pyrido[1,2-a]pyrimidin-4-one]",4.8
13,"COc1nc(-c2cccc(-c3cccc(-c4ccn5c(=O)c(CNC[C@@H]6CCCO6)cnc5c4)c3Cl)c2Cl)ccc1CNC[C@@H]1CCC(=O)N1 [Example 307, 8-[2-Chloro-3-[2-chloro-3-[6-methoxy-5-[[[(2S)-5-oxopyrrolidin-2-yl]methylamino]methyl]-2-pyridyl]phenyl]phenyl]-3-[[[(2S)-tetrahydrofuran-2-yl]methylamino]methyl]pyrido[1,2-a]pyrimidin-4-one]",37
14,"COc1nc(-c2cccc(-c3cccc(-c4cc(C)n5c(=O)c(CNCCO)cnc5c4)c3Cl)c2Cl)ccc1CNC[C@@H]1CCC(=O)N1 [Example 308, (S)-8-(2,2′-Dichloro-3′-(6-methoxy-5-((((5-oxopyrrolidin-2-yl)methyl)amino)methyl)pyridin-2-yl)-[1,1′-biphenyl]-3-yl)-3-(((2-hydroxyethyl)amino)methyl)-6-methyl-4H-pyrido[1,2-a]pyrimidin-4-one]",22
15,"COc1nc(-c2cccc(-c3cccc(-c4cn5c(CNC[C@@H]6CCC(=O)N6)cnc5cn4)c3Cl)c2Cl)ccc1CNC[C@@H]1CCC(=O)N1 [Example 309, (S)-5-((((6-(2,2′-Dichloro-3′-(3-(((((S)-5-oxopyrrolidin-2-yl)methyl)amino)methyl)imidazo[1,2-a]pyrazin-6-yl)-[1,1′-biphenyl]-3-yl)-2-methoxypyridin-3-yl)methyl)amino)methyl)pyrrolidin-2-one]",0.3
16,"COc1nc(-c2cccc(-c3cccc(-c4cnc5c(CNC[C@@H]6CCC(=O)N6)cnn5c4)c3Cl)c2Cl)ccc1CNC[C@@H]1CCC(=O)N1 [Example 310, (S)-5-((((6-(2,2′-Dichloro-3′-(3-(((((S)-5-oxopyrrolidin-2-yl)methyl)amino)methyl)pyrazolo[1,5-a]pyrimidin-6-yl)-[1,1′-biphenyl]-3-yl)-2-methoxypyridin-3-yl)methyl)amino)methyl)pyrrolidin-2-one]",0.2
17,"COc1nc(-c2cccc(-c3cccc(-c4cnc5cc(CNC[C@@H]6CCC(=O)N6)oc5c4)c3Cl)c2Cl)ccc1CNC[C@@H]1CCC(=O)N1 [Example 311, (S)-5-((((6-(2,2′-Dichloro-3′-(2-(((((S)-5-oxopyrrolidin-2-yl)methyl)amino)methyl)furo[3,2-b]pyridin-6-yl)-[1,1′-biphenyl]-3-yl)-2-methoxypyridin-3-yl)methyl)amino)methyl)pyrrolidin-2-one]",5
18,"COc1nc(-c2cccc(-c3cccc(-c4ccc5c(n4)nc(CNC[C@@H]4CCC(=O)N4)n5C)c3Cl)c2Cl)ccc1CNC[C@@H]1CCC(=O)N1 [Example 312, (S)-5-((((6-(2,2′-Dichloro-3′-(1-methyl-2-(((((S)-5-oxopyrrolidin-2-yl)methyl)amino)methyl)-1H-imidazo[4,5-b]pyridin-5-yl)-[1,1′-biphenyl]-3-yl)-2-methoxypyridin-3-yl)methyl)amino)methyl)pyrrolidin-2-one]",0.1
19,"COc1nc(-c2cccc(-c3cccc(-c4ccc5c(n4)nc(CN[C@H]4C[C@H](O)C4)n5C)c3Cl)c2Cl)ccc1CN[C@H]1C[C@H](O)C1 [Example 313, (1r,3r)-3-(((6-(2,2′-Dichloro-3′-(2-((((1r,3r)-3-hydroxycyclobutyl)amino)methyl)-1-methyl-1H-imidazo[4,5-b]pyridin-5-yl)-[1,1′-biphenyl]-3-yl)-2-methoxypyridin-3-yl)methyl)amino)cyclobutan-1-ol]",1.9
20,"COc1nc(-c2cccc(-c3cccc(-c4ccc5nc(CNC[C@@H]6CCC(=O)N6)n(C)c5n4)c3Cl)c2Cl)ccc1CNC[C@@H]1CCC(=O)N1 [Example 314, (S)-5-((((6-(2,2′-Dichloro-3′-(3-methyl-2-(((((S)-5-oxopyrrolidin-2-yl)methyl)amino)methyl)-3H-imidazo[4,5-b]pyridin-5-yl)-[1,1′-biphenyl]-3-yl)-2-methoxypyridin-3-yl)methyl)amino)methyl)pyrrolidin-2-one]",3.9
21,COc1nc(-c2cccc(-c3cccc(-c4ccc5nc(CN[C@H]6C[C@H](O)C6)n(C)c5n4)c3Cl)c2Cl)ccc1CN[C@H]1C[C@H](O)C1 [Example 315],0.4
